# Source: US6569893B2, “Amino acid derivatives of triptolide compounds as immune modulators and anticancer agents” (Pharmagenesis, Inc., priority 2001, dated 2003)
# Legend:
# [1] = test system: Jurkat human T lymphocyte cell line; experiment: Terminal deoxynucleotidyl transferase (TdT, TUNEL) apoptosis assay after incubation of compound with human serum; format: cell-based; conditions: for EC50: Jurkat cells, 24 h, compound pre-incubated 48 hr at 37° C. in pooled human serum, concentration inducing 50% apoptosis, read-out: ED50 (nM) after 48 hr incubation with human serum; for Conversion (relative activity compared to PG490) (%): percent of ED50 relative to triptolide incubated in parallel in human serum (taken as 100%)
# Protocol: (§1) Several compounds of formula I were prepared, as described in the Examples. In preliminary assays, the compounds were evaluated for their capacity to induce apoptosis in cells from the Jurkat human T lymphocyte cell line, after incubation with pooled human serum for 48 hrs at 37° C. (see Example 7). One of the compounds was also analyzed for its capacity to inhibit IL-2 production in Jurkat human T lymphocyte cells (see Example 8). Controls consisted of the compounds incubated in complete tissue culture medium (RPMI 1640 medium plus 5% heat-inactivated fetal calf serum, 1% HEPES, 1% pen/strep, 1% glutamine) rather than human serum.
# (§2) The ED50/IC50 values (column 3) are calculated directly from the data in each experiment, and the % conversion values (column 4) are calculated as percent of the ED50 or IC50 value produced by triptolide, incubated in the same plasma (i.e. in the same experiment).
# Pooled human serum was stored in aliquots at −80° C. Test compounds were added at 20 mM to thawed human serum in 1.5 ml microfuge tubes and incubated at 37° C. in a water bath for 48 hours. The test samples were placed on ice until dilution for the bioassay. Controls consisted of the compounds incubated in complete tissue culture medium (RPMI 1640 medium plus 5% heat-inactivated fetal calf serum, 1% HEPES, 1% pen/strep, 1% glutamine) rather than human serum.
# Test samples were diluted to 1 mM in complete tissue culture medium. Aliquots were placed in microculture plates and serial dilutions were prepared so that the final concentration would encompass the range of 2 to 6,000 nM with half-log increments. Cells from an exponentially expanding culture of the Jurkat human T lymphocyte cell line (#TIB-152 obtained from American Type Culture Collection, Manassas, Va.) were harvested, washed once by centrifugation and dilution in complete tissue culture medium, and diluted to a concentration of 1×10^6 cells/ml. A volume of 100 μl of Jurkat cells (1×10^5 cells) was added to wells containing 100 μl of the diluted compounds, and the plates were incubated at 37° C. in a 5% CO2 incubator. After 24 hours, the plates were centrifuged to pellet the cells, and the cells were washed with PBS. The cells were fixed in paraformaldehyde, washed, treated with ethanol, washed and then incubated with the enzyme terminal deoxynucleotidyl transferase (TdT) and fluorescein labeled-deoxyuridine (dUTP). The process allows 3′ end labeling of DNA molecules which were nicked during the DNA fragmentation phase of apoptosis (terminal deoxynucleotidyl transferase dUTP nick end labeling; TUNEL labeling). The cells were washed, treated with ribonuclease, washed and resuspended in medium containing propidium iodide to distinguish intact apoptotic cells. The contents of the assay wells were individually transferred into test tubes, and apoptosis was analyzed using a FACSCalibur flow cytometer (BD Immunocytometry Systems, San Jose, Calif.). Cells positive for Fl-dUTP were considered to be apoptotic, and the data were calculated as percent apoptotic cells.
# For the assays in sections B and C, data were plotted as the concentration of compound incubated in serum versus percent apoptotic cells, and the concentration of compound inducing 50% apoptosis (ED50) was calculated from these dose response curves. The percent conversion of the test compounds to bioactive compound (assumed to be triptolide) was calculated in reference to the result with triptolide incubated in parallel in human serum in the same experiment, as the percent of the ED50 of the compound compared to that for triptolide, which was taken as 100%.
# [2] = test system: HT-29 human colon cancer cell line tumor xenografts; conditions: HT-29 xenografts, cited from earlier work
# [3] = test system: IL-2 production in Jurkat human T lymphocyte cells; experiment: IL-2 production (inhibition) assay after incubation of compound with human serum; format: cell-based
# Protocol: as §1, §2
# (§3) Pooled human serum was stored in aliquots at −80° C. […]
# Test samples, incubated in human serum as described in Example 7A, were diluted to 1 mM in complete tissue culture medium. […] The stored supernatants were analyzed for human IL-2 concentration using the Luminex 100 (Luminex Corporation, Austin, Tex.), Luminex microspheres coupled with anti-IL-2 capture antibody, and fluorochrome-coupled anti-IL-2 detection antibody. The data were expressed as ng/ml of IL-2. […]
# [4] = test system: Jurkat human T lymphocyte cell line; experiment: Annexin V apoptosis assay after incubation of compound with human serum; format: cell-based
# Protocol: as §1, §2, §3
# Test samples (incubated in human serum as described in section A) were prepared and diluted as described in section B, and Jurkat human T lymphocyte cells were prepared and added to wells containing 100 μl of the diluted compounds, also as described in section B. The plates were incubated at 37° C. in a 5% CO2 incubator. […] Cells positive for Annexin V binding were considered to be apoptotic, and the data were calculated as percent apoptotic cells. […]
smiles,measurement,setting,value
"CC(C)[C@]12O[C@H]1[C@@H]1O[C@]13[C@]1(O[C@H]1C[C@H]1C4=C(CC[C@@]13C)C(=O)OC4)[C@@H]2OC(=O)C(CCC(=O)OCc1ccccc1)NC(=O)OCc1ccccc1 (mixture of isomers) [PG657, Triptolide 14-γ-Benzyl-N-benzyloxycarbonyl-(L)-glutamate Ester, mixture with D-isomer]",EC50,[1],300 nM
same,Conversion (relative activity compared to PG490) (%),[1],10%
"CC(C)[C@]12O[C@H]1[C@@H]1O[C@]13[C@]1(O[C@H]1C[C@H]1C4=C(CC[C@@]13C)C(=O)OC4)[C@@H]2OC(=O)CC[C@@H](NC(=O)OCc1ccccc1)C(=O)OCc1ccccc1 [PG660, Triptolide 14-α-Benzyl-N-benzyloxycarbonyl-D-glutamate Ester]",EC50,"[1]; Homo sapiens, Jurkat",1100 nM
same,Conversion (relative activity compared to PG490) (%),[1],2.7%
"CC(C)[C@]12O[C@H]1[C@@H]1O[C@]13[C@]1(O[C@H]1C[C@H]1C4=C(CC[C@@]13C)C(=O)OC4)[C@@H]2OC(=O)CC[C@H](NC(=O)OC(C)(C)C)C(=O)OC(C)(C)C [PG658, Triptolide 14-N-t-Butoxycarbonyl-α-t-butyl-L-glutamate Ester]",EC50,"[1]; Homo sapiens, Jurkat",750 nM
same,Conversion (relative activity compared to PG490) (%),[1],4.0%
CC(C)C12OC1C1OC13C1(C)CCC4=C(COC4=O)C1CC1OC13C2OC(=O)CCC(=O)O (stereo not drawn) [14-succinate derivative of triptolide],Tumor regression,[2],induced tumor regression
same,Tumor growth inhibition,[2]; in comparison to 5-FU and CPT-11,"strongly inhibited tumor growth, to a significantly greater degree than 5-FU and CPT-11"
"CC(C)[C@]12O[C@H]1[C@@H]1O[C@]13[C@]1(O[C@H]1C[C@H]1C4=C(CC[C@@]13C)C(=O)OC4)[C@@H]2OC(=O)CC[C@H](N)C(=O)O [PG661, 14-γ-L-glutamate Ester of Triptolide]",Conversion (relative activity compared to PG490) (%),"[3]; IL-2 inhibition assay, percent of IC50 relative to triptolide incubated in parallel (taken as 100%)",1.4%
same,IC50,"[3]; IL-2 inhibition, anti-CD3/PMA-stimulated Jurkat cells, 24 h, compound pre-incubated 48 hr in human serum, 50% decrease in IL-2 concentration",330 nM
same,EC50,"[4]; Jurkat cells, 24 h, compound pre-incubated 48 hr at 37° C. in pooled human serum, read-out: ED50 (nM) after 48 hr incubation with human serum",34700 nM
same,Conversion (relative activity compared to PG490) (%),[4]; percent of ED50 relative to triptolide incubated in parallel in human serum (taken as 100%),0.16%
